The text below walks through data of ChEMBL document CHEMBL4483862, “Open-source discovery of chemical leads for next-generation chemoprotective antimalarials” (2018).

In the test the test system is Plasmodium berghei. Description: Luciferase/luciferin-expressing antifolate-resistant parasites were used to infect a culture of HepG2 cells that were pre-incubated with compounds. Infected hepatocytes emit light due to the luciferase reaction. Assay results are presented as the percent inhibition of light emission compared to control. […]. The note with it: sporozoite; for IC90: read-out: LUCIFERASE INFECTION ASSAY - IC90. Format: functional.

[1] abbreviates: read-out: LUCIFERASE INFECTION ASSAY - IC50.

Take `CC12CCC(C(=O)N3CCN(c4cccc(Cl)c4)CC3)(OC1=O)C2(C)C` (stereo not given): the IC90 was greater than 8.76 µM. Also, the IC50 (PBLUC_HILL_SLOPE 1.72, PBLUC_R_SQUARED 0.0862, read-out: LUCIFERASE INFECTION ASSAY - IC50) was greater than 8.76 µM.

For the compound `Cc1ccc2cc(C)c(N/N=C/c3c(C)nn(-c4ccccc4)c3Cl)nc2c1`, the IC90 was 9.17 µM. Moreover, the IC50 (PBLUC_HILL_SLOPE 2.56, PBLUC_R_SQUARED 0.451, read-out: LUCIFERASE INFECTION ASSAY - IC50) amounted to 3.89 µM.

As for `OCc1cccc(-c2cnc3ccc(-c4cccc(F)c4)nn23)c1`, the IC90 worked out at 4.21 µM. The IC50 under setting [1] came out at 3.42 µM.

As to `Cc1ccc(S(=O)(=O)Nc2ccc(C(=O)/C=C/c3ccc(C(C)(C)C)cc3)cc2)cc1`, the concentration for an effect of 90% (IC90) was greater than 10 µM. For the same compound, the IC50 under setting [1] is greater than 10 µM.

On to `Cn1c(CNC(=O)c2cc(-c3ccccc3)c(N3CCOCC3)s2)nc2ccccc21`, for which the IC90 is greater than 10 µM. For the same compound, the IC50 under setting [1] is greater than 10 µM.

As for `CC1=C(C(=O)OC2CCC(C)CC2)C(c2ccc(C)cc2)NC(=O)N1` (stereo not given), the IC90 was greater than 9.64 µM. Also, the IC50 (FFLUC_HILL_SLOPE 14.5, FFLUC_R_SQUARED 0.355, read-out: LUCIFERASE INFECTION ASSAY - IC50) is greater than 9.64 µM.

With `CCc1ccc2nc(Nc3nc(=O)cc(-c4cccc(OC)c4)[nH]3)nc(C)c2c1`, the IC90 is greater than 8.52 µM. The IC50 (HEPG2TOX_HILL_SLOPE 12.4, HEPG2TOX_R_SQUARED 0.848, PBLUC_HILL_SLOPE 2.25, PBLUC_R_SQUARED 0.429, read-out: LUCIFERASE INFECTION ASSAY - IC50) turned out to be 5.68 µM.

On to `Cc1ccccc1-c1ccnc2c1c(=O)[nH]c(=O)n2Cc1ccccc1`, for which the IC90 was greater than 9.61 µM. Besides, the IC50 (PBLUC_HILL_SLOPE 10.5, PBLUC_R_SQUARED 0.045, read-out: LUCIFERASE INFECTION ASSAY - IC50) was greater than 9.61 µM.

On to `COCCn1c(C(=O)OC)c(NC(=O)c2ccco2)c2cc(NC(C)Cc3ccc(C)cc3)cnc21` (stereo not given), for which the IC90 is greater than 6.73 µM. The half-maximal inhibitory concentration (IC50) under setting [1] stood at 3.69 µM.

Take `CCNC(=S)N/N=C/c1cc(Cl)cc(Cl)c1O`: the concentration for an effect of 90% (IC90) was greater than 11.3 µM. Also, the IC50 (PBLUC_HILL_SLOPE 1.17, PBLUC_R_SQUARED 0.411, read-out: LUCIFERASE INFECTION ASSAY - IC50) was greater than 11.3 µM.

Take `Cc1cc(C(=O)CSc2nc(N)nc(N)n2)c(C)n1CCC1=CCCCC1`: the IC90 was greater than 10 µM. Besides, the IC50 under setting [1] is greater than 10 µM.

With `CN(C)CCNC(=O)c1ccc(-c2cn3c(-c4ccc(N(C)C)cc4)cnc3cn2)cc1`, the IC90 was greater than 7.7 µM. The IC50 under setting [1] was greater than 7.7 µM.

Take `COc1ccccc1-c1nc(COC(=O)c2cccnc2SC)cs1`: the 90% effect concentration (IC90) is greater than 10 µM. Besides, the IC50 under setting [1] was greater than 10 µM.

For the compound `CC(C)NC(=O)c1c(NC(=O)c2ccc(C#N)cc2)nc2ccccn12`, the IC90 was greater than 9.5 µM. Further, where the note is “HEPG2TOX_HILL_SLOPE 1.96, HEPG2TOX_R_SQUARED 0.946, PBLUC_HILL_SLOPE 9.83, PBLUC_R_SQUARED 0.197, read-out: LUCIFERASE INFECTION ASSAY - IC50”, the IC50 came out at 8.07 µM.

`O=C(NCc1ccc(Cl)cc1Cl)/C(=C/c1cccs1)n1nnnc1-c1ccccc1`: the IC90 was greater than 10 µM. Besides, for the setting “PBLUC_HILL_SLOPE 1.46, PBLUC_R_SQUARED 0.613, read-out: LUCIFERASE INFECTION ASSAY - IC50”, the IC50 was determined as 4.83 µM.

Take `Nc1c(C(=O)Nc2cccc(Cl)c2)sc2nc3c(c(-c4cccnc4)c12)CCC3`: the IC90 is greater than 7.84 µM. Further, under “FFLUC_HILL_SLOPE 1.24, FFLUC_R_SQUARED 0.605, PBLUC_HILL_SLOPE 2.61, PBLUC_R_SQUARED 0.023, read-out: LUCIFERASE INFECTION ASSAY - IC50”, the IC50 is greater than 7.84 µM.

On to `OCc1ccc(-c2cnc3cnc(-c4ccccc4Cl)cn23)cc1`, for which the IC90 was determined as 9.11 µM. For the same compound, where the note is “HEPG2TOX_HILL_SLOPE 2.47, HEPG2TOX_R_SQUARED 0.702, PBLUC_HILL_SLOPE 3.47, PBLUC_R_SQUARED 0.368, read-out: LUCIFERASE INFECTION ASSAY - IC50”, the IC50 stood at 4.84 µM.

For the compound `NC(=O)c1c(NC(=O)N2CCC(Cc3ccccc3)CC2)sc2c1CCC2`, the IC90 is greater than 8.6 µM. For the same compound, the IC50 (HEPG2TOX_HILL_SLOPE 1.79, HEPG2TOX_R_SQUARED 0.702, PBLUC_HILL_SLOPE 1.44, PBLUC_R_SQUARED 0.101, read-out: LUCIFERASE INFECTION ASSAY - IC50) stood at 3.57 µM.

As to `Cc1[nH]nc2ccnc(-c3cccc(Oc4ccccc4)c3)c12`, the IC90 is 5.52 µM. In addition, the IC50 (PBLUC_HILL_SLOPE 4.64, PBLUC_R_SQUARED 0.273, read-out: LUCIFERASE INFECTION ASSAY - IC50) turned out to be 3.44 µM.

In the case of `FC(F)(F)c1nnc2ccc(NC(c3ccccc3)c3cc4ccccc4o3)nn12` (stereo not given), the concentration for an effect of 90% (IC90) was found to be 4.2 µM. The IC50 (FFLUC_HILL_SLOPE 3.11, FFLUC_R_SQUARED 0.599, PBLUC_HILL_SLOPE 15.6, PBLUC_R_SQUARED 0.326, read-out: LUCIFERASE INFECTION ASSAY - IC50) worked out at 3.65 µM.

Turning to `Oc1cc2c(cc1CN1CCN(Cc3ccc4c(c3)OCO4)CC1)CCC2`, the concentration for an effect of 90% (IC90) is greater than 10 µM. Moreover, the IC50 under setting [1] was greater than 10 µM.

Consider `NS(=O)(=O)c1ccc(CCNc2nn3c(-c4cccc(C(F)(F)F)c4)cnc3s2)cc1`, for which the IC90 is greater than 7.06 µM. Besides, under “FFLUC_HILL_SLOPE 7.49, FFLUC_R_SQUARED 0.26, read-out: LUCIFERASE INFECTION ASSAY - IC50”, the IC50 is greater than 7.06 µM.

Consider `CSc1nccc(-c2sc(SC)c3c2CCCC3=O)n1`, for which the IC90 was greater than 10.2 µM. The IC50 under setting [1] was greater than 10.2 µM.

As for `COc1ccc(-c2cnc3ccc(NCC4CC4)nn23)cc1OC`, the IC90 was 2.25 µM. Moreover, the IC50 (HEPG2TOX_HILL_SLOPE 1.71, HEPG2TOX_R_SQUARED 0.949, PBLUC_HILL_SLOPE 2.62, PBLUC_R_SQUARED 0.845, read-out: LUCIFERASE INFECTION ASSAY - IC50) stood at 0.972 µM.

In the case of `CCN(CC)c1ccc(/C=N/NC(=S)NCC2CCCO2)c(O)c1` (stereo not given), the concentration for an effect of 90% (IC90) was greater than 10 µM. For the same compound, the IC50 (HEPG2TOX_HILL_SLOPE 16.0, 27.0, HEPG2TOX_R_SQUARED 0.190, 0.836, PBLUC_HILL_SLOPE 15.6, PBLUC_R_SQUARED 0.223, read-out: LUCIFERASE INFECTION ASSAY - IC50) amounted to 8.89 µM.

Consider `CCCCn1nc(C)c(/C=C/C(=O)N(CC)CC(=O)NCc2ccc(F)cc2)c1Cl`, for which the concentration for an effect of 90% (IC90) is greater than 10 µM. Besides, the half-inhibitory concentration (IC50) (HEPG2TOX_HILL_SLOPE 2.05, HEPG2TOX_R_SQUARED 0.946, PBLUC_HILL_SLOPE 2.58, PBLUC_R_SQUARED 0.346, read-out: LUCIFERASE INFECTION ASSAY - IC50) stood at 6.71 µM.

As to `S=C(N/N=C\c1cccc2ccccc12)Nc1cccc(Cl)c1Cl`, the IC90 was greater than 8.82 µM. In addition, under setting [1], the IC50 is greater than 8.82 µM.

For `CCOC(=O)C1=C(CSc2nc(-c3ccc(C)cc3)c(-c3ccc(C)cc3)[nH]2)NC(=O)NC1C` (stereo not given), the IC90 is greater than 10 µM. Besides, the IC50 under setting [1] was greater than 10 µM.

As to `CC(=O)N1C=Cc2ccccc2C1CC(=O)Nc1ccc(Cl)c(S(=O)(=O)N2CCCC2)c1` (stereo not given), the IC90 is greater than 10 µM. Besides, the IC50 under setting [1] is greater than 10 µM.

Regarding `O=C(c1cccs1)N1CCc2[nH]nc(-c3ccc(Cl)cc3)c2C1`, the 90% effect concentration (IC90) was greater than 9.6 µM. Moreover, the IC50 under setting [1] is greater than 9.6 µM.

For the compound `O=C(Nc1nc2c(s1)CCc1ccccc1-2)c1cccc(-n2cnnn2)c1`, the IC90 is greater than 10 µM. Further, the half-inhibitory concentration (IC50) under setting [1] is greater than 10 µM.

For the compound `CCNC(=O)COc1ccc(/C=C/C(=O)c2ccc(N3CCCCC3)cc2)cc1OC`, the IC90 was greater than 10 µM. In addition, the IC50 (HEPG2TOX_HILL_SLOPE 9.05, HEPG2TOX_R_SQUARED 0.908, PBLUC_HILL_SLOPE 2.57, PBLUC_R_SQUARED 0.344, read-out: LUCIFERASE INFECTION ASSAY - IC50) turned out to be 5.12 µM.

Consider `CCCNc1nc(-c2ccc(OC)cc2)c(-c2ccc(OC)cc2)s1`, for which the IC90 is greater than 10 µM. Besides, the IC50 (PBLUC_HILL_SLOPE 15.7, PBLUC_R_SQUARED 0.0413, read-out: LUCIFERASE INFECTION ASSAY - IC50) amounted to 9.99 µM.

As for `O=C1C(=C2SCCCS2)CC/C1=C\c1ccccc1`, the IC90 was found to be 5.73 µM. The IC50 (FFLUC_HILL_SLOPE 1.05, FFLUC_R_SQUARED 0.81, PBLUC_HILL_SLOPE 0.851, PBLUC_R_SQUARED 0.668, read-out: LUCIFERASE INFECTION ASSAY - IC50) amounted to 0.433 µM.

Turning to `CCOc1cc2c(cc1CNC(=O)c1cccc(NC(=O)c3cccs3)c1)OC(C)C2` (stereo not given), the IC90 was greater than 10 µM. In addition, for the setting “PBLUC_HILL_SLOPE 17.6, PBLUC_R_SQUARED 0.496, read-out: LUCIFERASE INFECTION ASSAY - IC50”, the IC50 worked out at 9.52 µM.

In the case of `CC(C)NC(=O)c1c(NC(=O)c2cc(F)cc(F)c2)nc2ccccn12`, the IC90 was 1.12 µM. The IC50 (FFLUC_HILL_SLOPE 17.9, FFLUC_R_SQUARED 0.386, HEPG2TOX_HILL_SLOPE 1.01, HEPG2TOX_R_SQUARED 0.782, PBLUC_HILL_SLOPE 15.7, PBLUC_R_SQUARED 0.648, read-out: LUCIFERASE INFECTION ASSAY - IC50) amounted to 0.969 µM.

Regarding `CCCCc1ccc2nc(NC(=O)c3cnc(C)cn3)sc2c1`, the concentration for an effect of 90% (IC90) was greater than 10 µM. Also, the IC50 (HEPG2TOX_HILL_SLOPE 2.45, HEPG2TOX_R_SQUARED 0.834, PBLUC_HILL_SLOPE 1.44, PBLUC_R_SQUARED 0.354, read-out: LUCIFERASE INFECTION ASSAY - IC50) is greater than 10 µM.

Consider `CC1(C)CC(=O)C(C(c2ccc(OCc3ccccc3)cc2)C2C(=O)CC(C)(C)CC2=O)C(=O)C1`, for which the IC90 is greater than 10 µM. Further, the IC50 (FFLUC_HILL_SLOPE 2.7, FFLUC_R_SQUARED 0.381, read-out: LUCIFERASE INFECTION ASSAY - IC50) was greater than 10 µM.

Turning to `O=C(NCC1CC1)c1cccc(C2(CNCc3ccc(F)c(Cl)c3)CC2)c1`, the IC90 was greater than 10 µM. Further, the IC50 under setting [1] was greater than 10 µM.

On to `CCCCn1nc(C(=O)NC(c2ccccc2)c2ccc(OC)cc2)c2ccccc2c1=O` (stereo not given), for which the IC90 was greater than 10 µM. Also, the half-maximal inhibitory concentration (IC50) under setting [1] was greater than 10 µM.
